target: CYP124 (Mycobacterium tuberculosis, UniProt P9WPP3); assay: UV/vis Soret shift; format: binding; details: 10 µM; […] ligand, […] DMSO; weak blue shift
Sequence (P9WPP3 whole entry): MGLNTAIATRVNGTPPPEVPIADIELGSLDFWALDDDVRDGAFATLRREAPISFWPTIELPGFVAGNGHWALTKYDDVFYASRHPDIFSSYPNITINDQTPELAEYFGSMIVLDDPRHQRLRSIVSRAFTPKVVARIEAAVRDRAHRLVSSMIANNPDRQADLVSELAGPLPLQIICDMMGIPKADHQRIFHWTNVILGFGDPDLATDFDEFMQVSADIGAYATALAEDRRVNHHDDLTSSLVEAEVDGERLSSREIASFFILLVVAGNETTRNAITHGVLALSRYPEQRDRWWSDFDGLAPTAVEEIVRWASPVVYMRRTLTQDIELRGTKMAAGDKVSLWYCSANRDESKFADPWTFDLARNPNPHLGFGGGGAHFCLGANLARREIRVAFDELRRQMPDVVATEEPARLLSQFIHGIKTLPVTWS

Compound	CYP124 [nm]
NC(Cc1c[nH]c2ccc(Br)cc12)C(=O)SCCc1ccccc1 (racemic) [compound 31, compound 31 (5-bromo-tryptophan phenethyl-thioester)]	−2

same assay, conditions: 100 µM; […] ligand, […] DMSO; weak blue shift

Compound	CYP124 [nm]
N[C@H](Cc1c[nH]c2ccccc12)C(=O)NCCc1c[nH]c2ccccc12 [compound 9, acyclic cWW-9]	−2

target: T1, Mtb CYP121 (Mycobacterium tuberculosis, UniProt P9WPP7); assay: UV/vis optical titration (Soret shift); format: binding; details: not given
T1 sequence (P9WPP7 whole entry): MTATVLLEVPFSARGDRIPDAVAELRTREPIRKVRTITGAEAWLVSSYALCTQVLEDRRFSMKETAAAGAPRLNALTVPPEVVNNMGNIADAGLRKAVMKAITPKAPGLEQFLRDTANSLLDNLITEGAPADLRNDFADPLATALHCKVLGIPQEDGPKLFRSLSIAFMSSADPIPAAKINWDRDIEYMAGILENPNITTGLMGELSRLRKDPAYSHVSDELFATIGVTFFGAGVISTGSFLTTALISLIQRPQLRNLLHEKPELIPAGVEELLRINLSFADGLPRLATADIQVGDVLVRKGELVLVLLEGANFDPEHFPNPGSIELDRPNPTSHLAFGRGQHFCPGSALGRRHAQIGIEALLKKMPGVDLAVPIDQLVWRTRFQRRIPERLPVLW
Source text: UV/vis optical titration (Soret shift) on Mtb CYP121

Compound	Kd [µM]
N[C@H](Cc1c[nH]c2ccccc12)c1nc(-c2ccccc2)c[nH]1 [compound 14, imidazole 14]	530 ± 100

same assay, conditions: read-out: K d [μM]^[b]

Compound	Kd [µM]
N[C@H](Cc1c[nH]c2ccccc12)C(=O)NCCc1ccccc1 [compound 8, acyclic cWF-8]	270 ± 22
NC(Cc1c[nH]c2ccc(Br)cc12)C(=O)SCCc1ccccc1 (racemic) [compound 31, compound 31 (5-bromo-tryptophan phenethyl-thioester)]	16 ± 2.4
N[C@H](Cc1c[nH]c2ccccc12)C(=O)SCC1CC(c2ccccc2)=NO1 (stereo partly shown) [compound 25, phenyl-isoxazole-substituted compound 25]	35 ± 4.2
N[C@@H](Cc1c[nH]c2ccccc12)C(=O)OCCc1ccccc1 [compound 3, L-phenethyl ester 3]	200 ± 19
NC(Cc1ccccc1Br)C(=O)SCCc1ccccc1 (stereo not shown) [compound 30, 2-bromophenylalanine derivative 30]	30 ± 3.8
N[C@H](Cc1c[nH]c2ccccc12)C(=O)SCCc1c[nH]c2ccccc12 [compound 17, indole-substituted thioester 17]	45 ± 4.4
N[C@H](Cc1c[nH]c2ccccc12)C(=S)NCCc1ccccc1 [compound 12, thioamide 12]	150 ± 18
NC(Cc1c[nH]c2ccc(Br)cc12)c1nc(-c2ccccc2)cs1 (racemic) [compound 32, compound 32 (5-bromo-tryptophan phenyl-thiazole)]	32 ± 2.5
N[C@H](Cc1c[nH]c2ccccc12)C(=O)NCCc1c[nH]c2ccccc12 [compound 9, acyclic cWW-9]	110 ± 6
N[C@H](Cc1c[nH]c2ccccc12)C(=O)NCCc1ccc(O)cc1 [compound 7, acyclic cYW-7]	260 ± 14
NC(Cc1c[nH]c2ncccc12)C(=O)SCCc1ccccc1 (racemic) [compound 27, aza-tryptophan analogue 27]	110 ± 9.1
N[C@H](Cc1c[nH]c2ccccc12)C(=O)OC/C=C/c1ccccc1 [compound 20, compound 20 (trans-alkene)]	120 ± 21
N[C@H](Cc1c[nH]c2ccccc12)c1nc(-c2ccccc2)cs1 [compound 13, thiazole 13]	44 ± 3.6
NC(Cc1c[nH]c2ccc(O)cc12)C(=O)SCCc1ccccc1 (racemic) [compound 26, compound 26 (5-hydroxy indole)]	130 ± 9.3
N[C@H](Cc1c[nH]c2ccccc12)c1nc(Cc2c[nH]c3ccccc23)cs1 [compound 18, indole-substituted thiazole 18]	52 ± 3.1
COC(=O)[C@H](N)Cc1c[nH]c2ccccc12 [1a, D-tryptophan methyl ester]	840 ± 88
N[C@H](Cc1c[nH]c2ccccc12)C(=O)OCCc1ccccc1 [compound 2, phenethyl ester 2]	200 ± 17

target: CYP142 (Mycobacterium tuberculosis, UniProt P9WPL5); assay: UV/vis Soret shift; format: binding; details: 2000 µM; […] ligand, […] DMSO; type II
Sequence (P9WPL5 whole entry): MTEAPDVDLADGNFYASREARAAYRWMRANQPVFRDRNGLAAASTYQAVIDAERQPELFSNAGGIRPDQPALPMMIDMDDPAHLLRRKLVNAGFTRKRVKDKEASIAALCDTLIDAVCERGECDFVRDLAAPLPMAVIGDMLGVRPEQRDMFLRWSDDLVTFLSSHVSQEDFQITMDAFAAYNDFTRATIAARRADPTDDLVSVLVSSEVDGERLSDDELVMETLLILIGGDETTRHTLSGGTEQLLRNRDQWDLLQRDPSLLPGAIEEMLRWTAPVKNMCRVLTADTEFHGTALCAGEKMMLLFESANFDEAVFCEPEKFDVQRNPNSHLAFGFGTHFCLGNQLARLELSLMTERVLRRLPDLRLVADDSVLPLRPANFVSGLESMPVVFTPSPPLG
Source text: UV/vis Soret shift on CYP142

Compound	CYP142
COC(=O)[C@H](N)Cc1c[nH]c2ccccc12 [1a, D-tryptophan methyl ester]	+2 nm

target: T1, Mtb CYP121; assay: thermal shift assay; format: binding; details: not given
Source text: thermal shift assay on Mtb CYP121

Compound	ΔTm at 5000 µM [°C]
COC(=O)[C@H](N)Cc1ccc(O)cc1 [1b, D-tyrosine methyl ester]	3

From PMC5026067, “Substrate Fragmentation for the Design of M. tuberculosis CYP121 Inhibitors” (Chemmedchem, 2016)
